From patent publication US20090075867A1, “Triazine compounds and compositions thereof for the treatment of cancers” (priority 2005, published 2009) come the findings set out here.

Structures are written as SMILES. Where two headings read alike, the source gives them in different places.

The test system of test [1] is NHDF, Normal Human Dermal Fibroblast. Put plainly: In vitro cytotoxicity (MTT) on NHDF. The format is cell-based. On the procedure:
(§1) This assay was performed to determine the effect of compounds of the present invention on cell cytotoxicity. Cells were incubated in presence or absence of compounds in their respective conditioned media. […] The supernatant was discarded and 100 μl of dimethylsulfoxide (DMSO) was added. Absorbance was read at […] with an ELISA Tecan SUNRISE™ plate reader. The control group consisted of cells without compounds and is referred to as 100% of viable cells. IC50 was determined using PRISM® software.
(§2) The predictive utility of cell-based cytotoxicity assays to assess the potential in vivo anticancer activity of compounds with selected cancer cell lines is well established in the art and the use of whole cells, instead of isolated protein receptors or enzymes, provides a more reliable determination of activity. See, for example, Paull et al. J. Natl. Cancer Inst. 81:1088-1092 (1989); Monks et al. J. Natl. Cancer Inst. 83:757-766 (1991); Bandes et al. J. Natl. Cancer Inst. 86:770-775 (1994); and Kamate et al. Intl. J. Cancer 100:571-579 (2002).

Test [2] has as its system B16F10, murine melanoma cell. Put plainly: In vitro cytotoxicity (MTT) on B16F10. In kind it is cell-based. As to conditions: Mus musculus, B16-F10. On the procedure:
as §1, §2

The subject of test [3] is P815, murine mastocytoma cell. Put plainly: In vitro cytotoxicity (MTT) on P815. The format is cell-based. As to conditions: Mus musculus. On the procedure:
as §1, §2

Test [4] relates to PC-3, human prostate carcinoma cell. Put plainly: In vitro cytotoxicity (MTT) on PC-3. In kind it is cell-based. On the procedure: as §1, §2
In test [5] the test system is PBML, Peripheral Blood Mononuclear Leukocytes. Put plainly: In vitro cytotoxicity (MTT) on PBML. As to conditions: Leukocyte. In kind it is cell-based. On the procedure:
as §1, §2

The next test has as its system B16F10 lung metastases. In kind it is in vivo. On the procedure: Female 6-8-week old C57BL/6 mice were injected intravenously on day 0 with 1-2.5×10^5 B16F10 melanoma cells from ATCC (source of cell culture, Dr. I. J. Fidler). B16F10 melanoma cells are a highly metastatic cell line which preferentially forms nodules in the lungs. Cells were cultured in DMEM supplemented with 10% fetal bovine serum. […] Fourteen days after inoculation, mice were sacrificed and their lungs were removed, rinsed in PBS, and placed in Bouin's fixative. The number of metastatic nodules (black colonies) on the surface of the lungs were counted.

The test system of the next test is Hep-G2, human liver cell. Put plainly: In vitro cytotoxicity (MTT) on Hep-G2. As to conditions: HepG2, 24-hour cell culture. In kind it is cell-based. On the procedure: as §1, §2
Test [6] relates to CAKI-2, human kidney cell. Put plainly: In vitro cytotoxicity (MTT) on CAKI-2. As to conditions: 24-hour cell culture. In kind it is cell-based. On the procedure: as §1, §2
For a further test, the system named is DA-3. Put plainly: In vitro cytotoxicity (MTT) on DA-3. The format is cell-based, BALB/c mice. As to conditions: Mus musculus, 24-hour cell culture. On the procedure:
as §1, §2
The syngeneic tumor DMBA3 (DA-3, breast carcinoma model) arose from a preneoplastic lesion treated with 7,12-dimethylbenzanthracene in female BALB/c mice. DA-3 cells were grown as monolayer cultures in plastic flasks in RPMI-1640 containing 0.1 mM nonessential amino acids, 0.1 μM sodium pyruvate, 2 mM L-glutamine. This was further supplemented with 50 μM 2-mercaptoethanol and 10% fetal bovine serum. The DA-3 tumors were serially passage in vivo by intradermal inoculation of 5×10^5 viable tumor cells to produce localized tumors in 6- to 8-week old BALB/c mice. The animals were then serially monitored by manual palpation for evidence of tumor. Mice were treated at day 11, 18 and 25 with cyclophosphamide (100 mg/kg) and at day 11, 12, 13, 15, 18, 20, 22, 25, 27 and 29 with compound 1, 2, 3 or 8 (50 mg/kg). Mice were sacrificed at day 43. Serial tumor volume was obtained by bi-dimensional diameter measurements with calipers, using the formula 0.4 (a×b^2) where “a” was the major tumor diameter and “b” the minor perpendicular diameter. […] The National Cancer Institute (USA) defines the product as effective if T/C is ≦40%.

Broadly, the IC50 is the concentration needed to halve the response being measured. A low value points to greater potency in that assay. Consider `CN(C)c1nc(NCCc2ccc(Nc3nc(Nc4cccc(N)c4)nc(N(C)C)n3)cc2)nc(Nc2cccc(N)c2)n1` [Compound 7], for which the IC50 in [1] (24-hour cell culture) was > 100 µM; in test [1] (72-hour cell culture), > 100 µM; in test [2] (24-hour cell culture) it was 2.2 µM; in test [2] (72-hour cell culture), 3 µM; in test [3] (24-hour cell culture), 20 µM; in [3] (72-hour cell culture), 1.3 µM. The half-maximal inhibitory concentration (IC50) in test [4] (24-hour cell culture) is 85 µM; in test [4] (72-hour cell culture) it was 8 µM; in test [5] (24-hour cell culture), > 100 µM; in [5] (72-hour cell culture), 79 µM.
As for `Nc1cccc(Nc2nc(NCCO)nc(Nc3cccc(Nc4nc(NCCO)nc(Nc5cccc(F)c5)n4)c3)n2)c1` [Compound 14], the 50% inhibitory concentration (IC50) in test [2] (24-hour cell culture) is 2.6 µM; in test [2] (72-hour cell culture) it was 10.2 µM; in test [3] (24-hour cell culture) it was 13.1 µM; in test [3] (72-hour cell culture), 7.8 µM; in [4] (24-hour cell culture) it was 29.9 µM; in test [4] (72-hour cell culture), 15.6 µM. For the same molecule, the “inhibition of the number of tumor nodules in lungs” value in the test with B16F10 lung metastases (FIG. 5, p<0.05) was found to be 50%.
On to `CN1CCN(c2nc(Nc3ccc(CCNc4nc(NCCO)nc(Nc5cccc(N)c5)n4)cc3)nc(Nc3cccc(N)c3)n2)CC1` [Compound 13], for which the IC50 turned out to be 1.9 µM in test [2] (24-hour cell culture); 2.2 µM in [2] (72-hour cell culture); 6.5 µM in test [3] (24-hour cell culture); 2.1 µM in test [3] (72-hour cell culture); 11 µM in [4] (24-hour cell culture); 6.1 µM in test [4] (72-hour cell culture).
Take `CN(C)c1nc(NCCc2ccc(Nc3nc(NCCO)nc(Nc4cccc(N)c4)n3)cc2)nc(Nc2cccc(N)c2)n1` [Compound 12]: the 50% inhibitory concentration (IC50) in test [2] (24-hour cell culture) was 1.2 µM; in test [2] (72-hour cell culture), 2 µM; in test [3] (24-hour cell culture), 13.5 µM; in test [3] (72-hour cell culture), 2.8 µM; in test [4] (24-hour cell culture) it was 11 µM; in test [4] (72-hour cell culture) it was 3.3 µM.
For the molecule `Nc1ccc(CCNc2nc(NCCNc3nc(NCCc4ccc(N)cc4)nc(Nc4cccc(N)c4)n3)nc(Nc3cccc(N)c3)n2)cc1` [Compound 3], the half-maximal inhibitory concentration (IC50) in test [1] (24-hour cell culture) is > 100 µM; in test [1] (72-hour cell culture), > 100 µM; in [2] (24-hour cell culture), 4 µM; in [2] (72-hour cell culture), 6 µM; in the test on Hep-G2, human liver cell, > 40 µM; in test [3] (24-hour cell culture), 33 µM. The IC50 in test [3] (72-hour cell culture) was 3 µM; in test [4] (24-hour cell culture) it was > 100 µM; in test [4] (72-hour cell culture), 15 µM; in test [6], > 40 µM; in test [5] (24-hour cell culture) it was > 100 µM; in test [5] (72-hour cell culture) it was > 100 µM.
Regarding `Nc1cccc(Nc2nc(NCCO)nc(Nc3ccc(Nc4nc(NCCO)nc(Nc5cccc(N)c5)n4)cc3)n2)c1` [Compound 4], the IC50 was > 100 µM in test [1] (24-hour cell culture); > 100 µM in test [1] (72-hour cell culture); 12 µM in [2] (24-hour cell culture); 37 µM in [2] (72-hour cell culture); 86 µM in [3] (24-hour cell culture); 32 µM in test [3] (72-hour cell culture). Also, the IC50 in [4] (24-hour cell culture) was 78 µM; in test [4] (72-hour cell culture) it was 37 µM; in test [5] (24-hour cell culture) it was 100 µM; in [5] (72-hour cell culture), > 100 µM.
Turning to `CC(Nc1nc(Nc2cccc(N)c2)nc(Nc2cccc(N)c2)n1)c1cccc(N)c1` (stereo not shown) [Compound 10], the IC50 in [1] (24-hour cell culture) is > 100 µM; in test [1] (72-hour cell culture) it was > 100 µM; in test [2] (24-hour cell culture) it was 62 µM; in [2] (72-hour cell culture), 36 µM; in test [3] (24-hour cell culture), > 100 µM; in [3] (72-hour cell culture) it was 36.6 µM. In addition, the IC50 was 74 µM in test [4] (24-hour cell culture), > 100 µM with DA-3, > 100 µM in [5] (24-hour cell culture) and > 100 µM in [5] (72-hour cell culture). Further, the “inhibition of the number of tumor nodules in lungs” value in the test on B16F10 lung metastases (FIG. 3, 50 mg/kg i.v. on day -3, -2, -1, 3, 5 and 7, p<0.001) was “significant inhibition”.
As to `Nc1cccc(Nc2nc(N)nc(Nc3cccc(Nc4nc(N)nc(Nc5cccc(N)c5)n4)c3)n2)c1` [Compound 5], the IC50 in test [1] (24-hour cell culture) is > 100 µM; in [1] (72-hour cell culture), 78 µM; in test [2] (24-hour cell culture), 8.5 µM; in [2] (72-hour cell culture) it was 39 µM; in test [3] (24-hour cell culture) it was > 100 µM; in test [3] (72-hour cell culture) it was 44.7 µM. Also, the half-inhibitory concentration (IC50) in test [4] (24-hour cell culture) was 50 µM; in test [4] (72-hour cell culture), 26 µM; with DA-3, 20 µM; in test [5] (24-hour cell culture), > 100 µM; in test [5] (72-hour cell culture), > 100 µM.
